In patent publication US20240139183A1, “COMPOUND FOR SUPPRESSING NONSENSE-MEDIATED MRNA DECAY” (RiboTech Co., Ltd., priority 2021, published 2024):

Columns and labels:
UPF1 = assay: Western blotting of UPF1 phosphorylation in treated cells; format: cell-based; conditions: 5 μM, 12 hours, FIG. 5
Method: Phosphorylation of UPF1 was known to be one of the most important factors in NMD. In Example 3.1, the effect of the three types of compounds of the present invention on phosphorylation of UPF1 was examined. The cells were treated with each compound at 5 μM for 12 hours, and then total proteins were purified. Then, western blotting was performed using each antibody capable of recognizing Upf1 or Upf1 phosphorylated at a specific site.

[1] = tested on: NMD steps (Upf1, Upf2, Upf3X tethered to reporter β-6bs mRNA); assay: Tethering assay: MS2-Upf1, MS2-Upf2, MS2-Upf3 tethered to 3' UTR of reporter mRNA in HeLa cell line, real-time PCR; format: cell-based; conditions: 5 μM, 6 hours or 12 hours, FIGS. 8 and 9
Method: An NMD-based search system capable of artificially reducing the amount of reporter mRNA was constructed, after artificially tethering proteins Upf1, Upf2, and Upf3X acting in each step of NMD to 3′ UTR of reporter mRNA (FIG. 7). Using this method, it was attempted to verify which step of NMD the three types of compounds acted on.
After treating the cell line with each compound at 5 μM for 6 hours or 12 hours, a cell extract was obtained. Thereafter, the relative amount of reporter mRNA was measured through real-time PCR.

[2] = tested on: NMD (HeLa cell line constitutively expressing the NMD-target mRNA); assay: NMD inhibitory effect in HeLa reporter cell line: RLuc mRNA (real-time PCR) and protein (dual luciferase assay); format: cell-based; conditions: 5 μM, 12 hours, FIG. 4; for amount of RLuc mRNA: real-time PCR
Source text: In Example 1, a beta-globin normal gene or the gene including a premature termination codon (PTC) found in genetic diseases was inserted into the downstream of a chemiluminescence gene, Renilla luciferase (RLuc). Normal gene-inserted mRNA was not targeted by NMD, whereas when a gene having PTC was inserted, the mRNA became a NMD target, and as a result, mRNA was quickly broken down and the expression level of RLuc was reduced.
Accordingly, a HeLa cell line constitutively expressing the NMD-target mRNA was prepared, and simultaneously, the cell line was designed to constitutively express a firefly luciferase (FLuc) gene, which was not a target of NMD, and a total of three cell lines NMD20, NMD4, and NMD5 with the same composition were obtained. In order to confirm whether the HeLa cell line prepared above was suitable for measuring NMD efficiency, the following two experiments were performed.
The NMD inhibitory effect of Compounds 1 to 3 was confirmed using the HeLa cell line prepared in Example 1. After treating the cells with Compounds 1 to 3 at 5 μM for 12 hours, respectively, total RNA and protein were purified from the cells, respectively. Then, the amounts of RNA and protein were quantified respectively through real-time PCR and dual luciferase assay methods. The results were illustrated in FIG. 4.

[3] = molecular target: T1, binding between UPF1 and UPF2 (Homo sapiens, UniProt Q92900); assay: FLAG-UPF1 immunoprecipitation / western blotting for UPF1-UPF2 binding; format: cell-based; conditions: 5 μM, 1 hour; FLAG-UPF1 overexpressed; immunoprecipitation with FLAG antibody; FIG. 6
T1 construct: expressed in transfected cells
T1 sequence (Q92900 1-1129): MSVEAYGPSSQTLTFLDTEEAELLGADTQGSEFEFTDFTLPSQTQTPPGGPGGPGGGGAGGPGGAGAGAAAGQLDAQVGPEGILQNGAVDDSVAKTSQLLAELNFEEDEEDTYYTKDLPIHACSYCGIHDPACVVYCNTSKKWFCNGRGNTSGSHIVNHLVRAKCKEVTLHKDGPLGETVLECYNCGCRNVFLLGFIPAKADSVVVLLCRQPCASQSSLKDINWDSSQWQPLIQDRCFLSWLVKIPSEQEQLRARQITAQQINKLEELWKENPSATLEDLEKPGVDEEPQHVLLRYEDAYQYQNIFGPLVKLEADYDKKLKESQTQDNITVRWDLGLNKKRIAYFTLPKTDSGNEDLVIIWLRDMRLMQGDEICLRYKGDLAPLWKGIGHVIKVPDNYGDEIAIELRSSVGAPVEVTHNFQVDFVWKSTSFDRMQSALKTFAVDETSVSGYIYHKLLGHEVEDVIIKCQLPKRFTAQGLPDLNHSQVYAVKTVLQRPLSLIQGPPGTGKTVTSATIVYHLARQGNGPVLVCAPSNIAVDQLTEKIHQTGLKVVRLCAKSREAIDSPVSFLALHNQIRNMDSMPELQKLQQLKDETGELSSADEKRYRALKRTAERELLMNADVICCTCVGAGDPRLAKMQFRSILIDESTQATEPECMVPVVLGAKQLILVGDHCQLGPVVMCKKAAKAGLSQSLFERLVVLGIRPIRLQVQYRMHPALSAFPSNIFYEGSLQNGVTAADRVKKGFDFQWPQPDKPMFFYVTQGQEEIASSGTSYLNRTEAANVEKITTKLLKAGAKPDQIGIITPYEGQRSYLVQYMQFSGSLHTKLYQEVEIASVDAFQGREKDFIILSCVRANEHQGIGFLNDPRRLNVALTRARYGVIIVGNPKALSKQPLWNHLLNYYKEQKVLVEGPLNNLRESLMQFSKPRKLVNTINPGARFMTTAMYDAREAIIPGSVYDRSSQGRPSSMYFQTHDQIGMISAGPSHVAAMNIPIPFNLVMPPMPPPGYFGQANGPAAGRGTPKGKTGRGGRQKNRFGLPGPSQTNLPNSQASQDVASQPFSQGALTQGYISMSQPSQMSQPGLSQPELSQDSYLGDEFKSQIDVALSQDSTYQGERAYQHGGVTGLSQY
Method: In the cell line, DNA expressing FLAG-UPF1 was transiently overexpressed.
After treating the cell line with each compound at 5μM for 1 hour, a cell extract was obtained. Immunoprecipitation was performed on the cell extract obtained using a FLAG antibody.
Proteins before and after immunoprecipitation were analyzed by western blotting.

[4] = tested on: dystrophin protein in cells derived from patients with DMD; assay: Dystrophin protein by Western blotting in DMD patient-derived cell line; format: cell-based, human; conditions: 5 μM, 12 hours, FIG. 11

Structure (SMILES)	effect on phosphorylation of UPF1 (UPF1)	step of NMD targeted (relative amount of reporter mRNA) [1]	protein translation of RLuc ([2]; dual luciferase assay)	effect on UPF1-UPF2 binding [3]	amount of dystrophin protein [4]	amount of RLuc mRNA [2]
COc1ncc(-c2ccc3nccc(-c4ccnnc4)c3c2)cc1NS(=O)(=O)c1ccc(F)cc1F [Compound 1, 2,4-Difluoro-N-{2-(methyloxy)-5-[4-(4-pyridazinyl)-6-quinolinyl]-3-pyridinyl}benzenesulfonamide]	did not significantly affect phosphorylation of UPF1	targeted a UPF1-UPF2 step	increased protein translation of RLuc	significantly inhibited the UPF1-UPF2 binding	increased	–
Cn1c(=O)n(-c2ccc(C(C)(C)C#N)cc2)c2c3cc(-c4cnc5ccccc5c4)ccc3ncc21 [Compound 2, 2-methyl-2-{4-[3-methyl-2-oxo-8-(quinolin-3-yl)-2,3-dihydro-1H-imidazo[4,5-c]quinolin-1-yl]phenyl}propanenitrile]	significantly inhibited phosphorylation of UPF1	did not target the UPF1-UPF2 and UPF2-UPF3 steps	–	did not significantly affect the UPF1-UPF2 binding	–	significantly increased the amount of mRNA
COc1cc2ncnc(-n3nc(-c4ccccn4)nc3N)c2cc1OC [Compound 3, 1-(6,7-Dimethoxy-4-quinazolinyl)-3-(2-pyridinyl)-1H-1,2,4-Triazol-5-amine]	did not significantly affect phosphorylation of UPF1	did not target the UPF1-UPF2 and UPF2-UPF3 steps	–	did not significantly affect the UPF1-UPF2 binding	–	significantly increased the amount of mRNA
